According to US20050106270A1, “Chemical treatment of in vivo tissue to alter charge and net charge density characteristics” (priority 2003, published 2005):
Where “and” joins values, the source holds several entries; their conditions need not be identical. Equal values may be shown once.

Key:
[1] = test system: sclera tissue of bovine eyes; experiment: Softening of bovine sclera tissue, compression analysis; settings: 100 mg/mL, 1 minute exposure
Procedure: Bovine eyes were procured from a local slaughterhouse and stored in Optisol solution. Whole eyes were removed from the preservation solution and the sclera dried using Kim wipes. A solution of 0.2M disodium phosphate, pH 9.5 was applied to the dried sclera tissue. The tissue was exposed to the disodium phosphate solution for 1 minute. The tissue was again dried using a Kim wipe and a solution containing 100 mg/mL of glutaric anhydride in […] was exposed to the anhydride solution for 1 minute and the tissue then thoroughly rinsed with sterile 0.02M phosphate buffer, pH 7.2. The exposed tissue was examined for tissue softening. […] Sclera tissue softening was also obvious by application of thumb pressure to treated and untreated areas of the sclera tissue. It is proposed that sclera softening using acylating agents may be used to expand sclera tissue, thereby permitting more space for the ciliary body to expand and contract the lens.

[2] = test system: cornea of whole porcine (pig) eyes; experiment: Treatment of trephined enucleated porcine eyes, inspection of corneal curvature; settings: 50 mg/mL in 0.2M disodium phosphate pH 9.0, 1 minute, 7 mm trephined ring
Procedure: Whole, fresh porcine (pig) eyes were obtained from a local abattoir and immediately placed in Optisol GS preservation solution. The whole eye was placed in a holder allowing the corneal surface to be exposed. A 7 mm trephine was used to cut through the epithelium and penetrate the superficial corneal tissue. The corneal surface was then flooded with 0.2M disodium phosphate solution, pH 9.0. After 1 minute, the surface of the cornea was dried using an absorbent wipe (Kim Wipe). The corneal surface was immediately treated with 0.2M disodium phosphate solution, pH 9.0, containing 50 mg/mL of glutaric anhydride. After 1 minute of exposure, the cornea was flushed with phosphate buffered saline, pH 7.2. The surface of the cornea was inspected and the corneal curvature examined and compared to untreated eyes. […] The application of glutaric anhydride to a trephined peripheral ring of a pig cornea produced obvious flattening of the central cornea. It is believed that this technique might provide a simple, non-surgical method for treating myopia by inducing swelling in defined ring on the corneal periphery, thereby causing flattening of the central cornea.

[3] = test system: processed human skin (lyophilized dermis); experiment: Acylation of processed human skin (lyophilized dermis), mechanical properties; settings: 1 minute treatment
Procedure: Processed human skin was obtained for treatment. The processed skin was comprised of lyophilized dermis. Four samples were tested, two 2 cm×4 cm specimens and two 2 cm×8 cm specimens. Two sets of specimens were treated with 50 mg/mL of glutaric anhydride (dose #1) and the other two sets with 100 mg/mL of glutaric anhydride (dose #2). The rejuvenation agents were prepared in dilute buffer solution. Prior to treatment with the active agent, skin specimens were pre-treated with buffer alone. Treatments were completed in 1 minute.

[4] = test system: reconstituted, lyophilized human dermis; experiment: Third series: reconstituted lyophilized human dermis exposed to acylation agent
Excerpt: In a third series of experiments, reconstituted, lyophilized human dermis samples were exposed to the acylation agents (glutaric anhydride). Again, dermal thickness increased from about 1 mm to 2 mm due to increased water binding. In addition, dermal pliability was increased as evidenced by the decreased relaxation time. It is hypothesized that the reactive agent changes the net charge distribution on collagen fibrils reducing the intensity of intrafibrillar interactions and increasing pliability. Increased water binding and pliability are characteristics associated with young skin.

cat cornea = experiment: In vivo cat model, corneal power by topographical mapping and optical examinations
Procedure: Two cats were treated with the active agent, glutaric anhydride. Treatment was applied to the right eye (OD) while the contra lateral eye (OS) served as a control. Buffer solution (0.02M disodium phosphate solution at pH 9.0) was first applied to the corneal surface. This was immediately followed by application of a solution of glutaric anhydride in disodium phosphate into a peripheral ring of a corneal mold placed on the corneal surface. The mold provided a tight seal to prevent migration of the active agent to the central cornea. Two treatment applications were provided at Day 1 and Day 7. The dosage of the active agent was 50 mg/mL. Eyes were examined for another 7 days following the second treatment.

articular cartilage = experiment: Rabbit articular cartilage slices, stress-strain analysis and histology; settings: 3 minutes exposure; for High Modulus Region Pa) / Low Region Modulus (Pa): 5 mg/ml in 0.02M disodium phosphate; for histological examination, control vs treated articular cartilage: 5 mg/ml
Procedure: Articular cartilage was dissected from both femoral and tibial chondyles of sacrificed rabbits. Cartilage slices were stored in sterile physiological saline. Eight slices of similar size (about 2 mm×2 mm) were placed in individual Eppendorf tubes. Physiological saline was replaced with 0.02M disodium phosphate at pH 8.5. […] Three specimens were treated with 0.02M disodium phosphate containing 5 mg/ml glutaric anhydride (95%). The remaining three specimens were treated with 0.02M disodium phosphate containing 5 mg/ml of acetic anhydride. Samples were exposed to control solution or acylation chemical for 3 minutes and then washed three times with sterile phosphate buffered saline (0.04M) at pH 7.2.

[5] = test system: cornea of enucleated porcine eyes; experiment: Enucleated porcine eyes, corneal power by topographical mapping (Optikon 2000); settings: for Post-treatment Power (D), corneal power by topographical mapping: 1 minute exposure
Excerpt: Eyes were procured from a local slaughterhouse, positioned in a device to stabilize the eye and subjected to topographical evaluation using the Optikon 2000 system. The corneal surface was dried using sterile gauze and then wetted with drops of buffer solution. The wetted eyes were again dried and exposed again to the same solution. Then a peripheral ring around the circumference of the corneal surface, slightly away from the limbus and the central cornea, was carefully treated by adding drops of buffer containing the active agent, a 20 mg/ml solution of glutaric anhydride. The eyes were then reexamined topographically and photos taken. Following evaluation, the eyes were placed in OptiSol for storage pending additional evaluations. Three eyes were treated using this protocol. In two eyes the active agent at 20 mg/mL was applied to a ring around the corneal periphery. The exposure width was approximately 1 mm. In one eye the active agent at 20 mg/mL was applied to a 2 mm diameter area on the apex of the central cornea. The exposure time was 1 minute. All eyes were then washed with neutral pH phosphate buffer.

dermal tissue = experiment: Second experiment: stress-strain analysis of dermal tissue strips (Sample C vs Sample D, FIG. 5); set-up: species or system human; settings: fresh 100 mg/mL anhydride solution
Procedure: FIG. 5 is a graph showing the stress-strain analysis of dermal tissue specimen C and dermal tissue specimen D after treating the specimens with the same acylating agent under different treatment conditions.
In a second experiment one strip (Sample C) of dermal tissue was exposed to a 100 mg/mL anhydride solution. A second strip (Sample D) was exposed to the same anhydride solution after about 2 minutes.

## O=C1CCCC(=O)O1 [glutaric anhydride]
[1]
  sclera tissue softening by thumb pressure, treated vs untreated areas: obvious
[1]; after 0.2M disodium phosphate pH 9.5
  low modulus by compression analysis: significant loss of low modulus
[2]
  central corneal surface compared to untreated eyes: clearly depressed or flattened
[3]; dose 50 mg/mL
  Strain (%): 79%
  Stress (MPa): 2.5 MPa
  Thickness: 1.77 mm
[3]; dose 100 mg/mL
  Strain (%): 84%
  Stress (MPa): 2.7 MPa
  Thickness: 2.55 mm
[4]
  dermal pliability: increased
  relaxation time: decreased
[4]; increased from about 1 mm
  dermal thickness after treatment: ~2 mm
Cat cornea; 7 days following the second treatment, 50 mg/mL
  optical examinations, including slit-lamp biomicroscopy and Shiotz tonometry, treated vs control eyes: no differences
Cat cornea; right eye (OD), 50 mg/mL in peripheral ring, two applications at Day 1 and Day 7
  Average Post-treat (D), corneal power by topographical mapping: 38.88 D and 40.68 D
Articular cartilage
  High Modulus Region Pa): 58.1 Pa
  Low Region Modulus (Pa): 26.7 Pa
  histological examination, control vs treated articular cartilage: no differences
[5]; 20 mg/mL applied to 2 mm diameter area on apex of central cornea
  Post-treatment Power (D), corneal power by topographical mapping: 41.3 D
[5]; 20 mg/mL applied to about 1 mm wide ring around corneal periphery
  Post-treatment Power (D), corneal power by topographical mapping: 37.4 D and 40.9 D
[5]; after treatment, 20 mg/mL, 1 minute
  appearance of eyes by visual examination: appeared clear
[5]; treatment of the central cornea, 20 mg/mL
  increase of refractive power: about 0.7 diopters
[5]; treatment of the periphery of the cornea, 20 mg/mL
  reduction of corneal power: more than 2 diopters
Dermal tissue; vs Sample D (hydrolyzed solution)
  thickness of Sample C relative to Sample D: significantly thicker
Dermal tissue; vs Sample D (same solution after about 2 minutes, hydrolyzed)
  elastic and viscous stress-strain curves: shifted to higher percent strain

## CC(=O)OC(C)=O [acetic anhydride]
Articular cartilage
  High Modulus Region Pa): 47.7 Pa
  Low Region Modulus (Pa): 16.6 Pa
  histological examination, control vs treated articular cartilage: no differences
